Experiments:
[1] = test system: caspase-3/7 activity in HT29 cells; assay: Caspase 3/7 activity assay; assay type: cell-based, human; settings: HT29, 1.25 – 5 µM, 24 h
HT29 cells = assay: TUNEL assay; assay type: cell-based, human; settings: HT29, 5 µM, 48 h
[2] = test system: purified bovine brain tubulin; assay: Fluorescence-based tubulin polymerization assay; assay type: biochemical; settings: 10 µM, cell-free
[3] = test system: Akt (phospho-Akt and total Akt) in HT29 cells; assay: Western analysis of phospho-Akt and total Akt; assay type: cell-based, human; settings: 24 h, Western blot; for effect on Akt expression and phosphorylation, 1 µM: HT29, 1 µM; for effect on Akt expression and phosphorylation: HT29, 1 or 2 µM (not specified)

SMILES	caspase-3/7 activity relative to DMSO vehicle treated cells [1]	TUNEL staining (DNA fragmentation) (HT29 cells)	inhibition of the rate of microtubule polymerization ([2]; 1 h at 37 °C)	effect on Akt expression and phosphorylation, 1 µM [3]	effect on Akt expression and phosphorylation [3]	effect on Akt expression and phosphorylation, 2 µM ([3]; HT29, 2 µM)	effect on microtubule formation versus vehicle control [2]
N#CSCc1ccc(CN2C(=O)C(=O)c3cc(Br)cc(Br)c32)cc1 [Compound 11, 5,7-Dibromo-N-(p-thiocyanomethylbenzyl)isatin]	significant dose dependent increases in caspase-3/7 activity	significant number of TUNEL-positive colon cancer cells	about 71%	reduced Akt protein levels and strongly suppressed the phosphorylation of Akt	Akt levels were reduced but the phosphorylation was virtually eliminated		
N#C[Se]CCCN1C(=O)C(=O)c2cc(Br)cc(Br)c21 [Compound 5, 5,7-Dibromo-N-(3’-selenocyanatopropyl)isatin]	significant dose dependent increases in caspase-3/7 activity						
O=C1C(=O)N(CCCN=C=S)c2c(Br)cc(Br)cc21 [Compound 6, 5,7-Dibromo-N-(3’-isothiocyanatopropyl)isatin]	significant dose dependent increases in caspase-3/7 activity	significant number of TUNEL-positive colon cancer cells		very little effect on either expression or phosphorylation of Akt		both levels and phosphorylation state of Akt were reduced	
O=C1C(=O)N(Cc2ccc(CN=C=S)cc2)c2c(Br)cc(Br)cc21 [Compound 13, 5,7-Dibromo-N-(p-isothiocyanatomethylbenzyl)isatin]	significant dose dependent increases in caspase-3/7 activity			reduced Akt protein levels and strongly suppressed the phosphorylation of Akt	Akt levels were reduced but the phosphorylation was virtually eliminated		
CC[C@]1(O)C[C@@H]2CN(CCc3c([nH]c4ccccc34)[C@@](C(=O)OC)(c3cc4c(cc3OC)N(C)[C@H]3[C@@](O)(C(=O)OC)[C@H](OC(C)=O)[C@]5(CC)C=CCN6CC[C@]43[C@@H]65)C2)C1.O=S(=O)(O)O [Vinblastine, vinblastine sulfate]							strongly inhibited microtubule formation
CC(=O)O[C@H]1C(=O)[C@@]2(C)[C@H]([C@H](OC(=O)c3ccccc3)[C@]3(O)C[C@H](OC(=O)[C@H](O)[C@@H](NC(=O)c4ccccc4)c4ccccc4)C(C)=C1C3(C)C)[C@]1(OC(C)=O)CO[C@@H]1C[C@@H]2O [paclitaxel]							stabilized microtubules
